Reference: article PMC11091243, “PD-L1 targeted peptide demonstrates potent antitumor and immunomodulatory activity in cancer immunotherapy” (Frontiers in Immunology, 2024)
Residues, ends and D or L forms follow the SMILES beside them. No end group written: not given here. *: point of attachment. FITC = O=C1OC2(c3ccc(O)cc3Oc3cc(O)ccc32)c2ccc(NC(=S)*)cc21

Legend:
[1] = biological target: T1, PD-1/PD-L1 binding (Homo sapiens, UniProt Q9NZQ7); experiment: ELISA competition of peptides with PD-1 for binding to PD-L1; details: n = 3, effect increases with peptide concentration
T1 construct: PD-1: 10377-H08H
T1 sequence (Q9NZQ7 19-239 limits assumed): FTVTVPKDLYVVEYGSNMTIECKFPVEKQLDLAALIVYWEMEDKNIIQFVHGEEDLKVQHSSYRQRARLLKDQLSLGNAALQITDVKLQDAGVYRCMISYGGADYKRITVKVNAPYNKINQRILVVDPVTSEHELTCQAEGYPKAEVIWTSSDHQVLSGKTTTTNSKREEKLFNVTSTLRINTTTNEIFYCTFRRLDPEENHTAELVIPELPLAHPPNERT
Method: After seven phages were grown and purified, the solution was diluted 10 times to produce eight gradients. To ascertain the phage’s affinity for PD-L1, an ELISA test was run. Briefly, 96-well plates were filled with 150 µL of PD-L1 ([…]) in assay diluent (BioLegend, San Diego, CA), and incubated at 4°C overnight. 5% BSA in water was used to block the wells for two hours at 4°C. Following washing, 100 µL of phage diluent was added to each well, and they were shaken for two hours at room temperature. The wells were then treated with HRP-conjugated anti-M13 antibody at dose of 1:5000. With 100 µL of HRP substrate, the reaction was observed, and the OD410 was determined. By deducting the OD value of each phage binding to BSA-coated wells from the OD value of that phage binding to PD-L1, the specific binding of each phage to PD-L1 was computed. Three duplicate runs of this assay were made. GraphPad Prism 6 software was used to compute each phage binding affinity by nonlinear regression and convert it to a Scatchard plot. ELISA was used to evaluate the candidate peptides capacity to inhibit PD1/PD-L1 binding. The subsequent stages were the same as those previously outlined. Following incubation, OD410 was determined by goat anti-rabbit monoclonal antibody that had been HRP-labeled and rabbit anti-human PD-L1 protein monoclonal antibody.
To assess the effect of PPL-C peptide interference, PD-L1 binding to PD-1 was investigated using ELISA and cell-based analysis. For the ELISA, 100 μL of mouse PD-L1 in PBS was coated in each well of a 96-well plate and incubated the plate at 4°C overnight. On the second day, 1% BSA in PBST was used to block the plate. Each well was then filled with 200 nmol/L biotinylated PD-1 and FITC-labeled PPL-C peptides (at final concentrations of 40, 20, 10, 5, or 2.5 μmol/L) before 1.5 hours incubating at room temperature. After two PBST washes, the relative FITC fluorescence intensity was measured using a Cytation 3 instrument. […] After two PBST washes, the Cytation 3 device was used to detect PE fluorescence intensity. […] Samples were analyzed by flow cytometry.

[2] = tested on: CT26 tumor; format: in vivo, mouse; details: reduced dose, s.c. around the tumor every day or every other day, n = 6, P<0.001
Method: The investigators conducting the animal studies were not blinded. […] The mice were then randomized into different treatment groups.
(§1) The mice’s tumor volumes were measured by calipers after they were randomly allocated to various treatment groups. Every day tumor volumes were measured along axes (a and b) that are orthogonal to one another, and they were estimated by the equation tumor volume = π/6 × a × b^2. After the tumor was established (approximately 7 days), each group was subcutaneously injected with PPL-C (6 or 11 mg/kg), control peptide (11 mg/kg), endotoxin-free PD-L1 antibody (200 μg), or control antibody, following specific treatment procedures outlined in the flow chart. The Kaplan-Meier technique was used to determine survival differences for each group, and the log-rank test using the survival R package version 2.38-3 was applied to get the overall p-value.

[3] = tested on: splenic lymphocyte subsets of CT26-bearing Balb/c mice; experiment: Flow cytometry of spleen lymphocytes of CT26-bearing mice after treatment; format: in vivo; details: CT26-bearing Balb/c mice, 14 days after treatment; Figure 5D
Method: as §1
To differentiate lymphocytes, spleen monocytes were separated via isodensity centrifugation. For flow cytometry evaluation, cell-surface and intracellular staining was achieved through reagents from BD Biosciences or Biolegend, following previously described protocols. Re-suspending the 1× 10^6 cells in 100 μL of PBS before incubating them with the appropriate antibodies. Data were collected using a BD Biosciences FACSCalibur flow cytometer, Germany, and analyzed using FlowJo 7.6 software, USA. Based on scatter signals and 7-Amino-actinomycin D fluorescence, dead cells, and cell debris were removed from the study.

## CC[C@H](C)[C@H](NC(=O)[C@H](Cc1c[nH]c2ccccc12)NC(=O)[C@H](CO)NC(=O)[C@@H](NC(=O)[C@H](Cc1c[nH]cn1)NC(=O)[C@@H](N)CO)[C@@H](C)O)C(=O)N[C@@H](CC(C)C)C(=O)N[C@@H](Cc1ccc(O)cc1)C(=O)NCC(=O)N[C@@H](CCC(=O)O)C(=O)N[C@H](C(=O)NCC(=O)N[C@@H](Cc1c[nH]c2ccccc12)C(=O)NCC(=O)NCC(=O)NCC(=O)N[C@@H](CO)C(=O)N[C@@H](CCCCNC(=S)Nc1ccc2c(c1)C(=O)OC21c2ccc(O)cc2Oc2cc(O)ccc21)C(N)=O)[C@@H](C)O [PL-8] (H-SHTSWILYGETGWGGGSK(FITC)-NH2; N-terminus assumed)
[1]
  Competition with PD-1 to bind PD-L1 (blocking of PD-L1/PD-1): blocked moderately

## SHESWLPAYVLGSGGGSK-NH2 [PL-20]
[1]
  Competition with PD-1 to bind PD-L1 (blocking of PD-L1/PD-1): blocked moderately

## SMQYADHPVNTGGGGSK-NH2 [Control peptide, scrambled control peptide, reference compound]
[2]
  Survival time of CT26 tumor-bearing mice: 53 days
[3]
  Percentage of NK cells in spleen (CD49b/Nkp46, upper right quadrant): 10.80%
